US20090197269A1, “Translocation and mutant CSF1R Kinase in human leukemia” (CELL SIGNALING TECHNOLOGY, INC., priority 2006, published 2009)

Key:
STAT5 and ERK = test: Western blot of downstream target phosphorylation in MKPL-1 cells; assay type: cell-based, human; conditions: Imatinib
CMK = test: MTT cell proliferation assay, control cells; assay type: cell-based, human; conditions: control cells (CMK negative control), 48 hour MTT

Compound: Cc1ccc(NC(=O)c2ccc(CN3CCN(C)CC3)cc2)cc1Nc1nccc(-c2cccnc2)n1 [Imatinib]
- phosphorylation of downstream target STAT5 and ERK (STAT5 and ERK): inhibited as well
- inhibition of cell growth (CMK): the control cells are not
